{"source": "PubChem BioAssay AID2060894", "about": "(Molecular Pharmacology Branch, DTP, NCI, 2025);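 further: spheroids exposed to agents for one week before readout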", "test_system": "K12877-001-R-J1-PDC complex spheroid viability", "assay": "Anticancer human tumor K12877-001-R-J1-PDC patient-derived lung adenocarcinoma cell line growth inhibition [RAS]", "conditions": "for IC50: curve of first compound; for viability, T/C: stronger effect = lower value", "source_text": "RAS pathway inhibitors in Combinations in Complex Spheroids\nA high-throughput screen of multi-cell type tumor spheroids was designed to identify active combinations of RAS pathway inhibitors and targeted small molecules. Complex spheroids include a stromal component modeled by human endothelial cells (HUVEC) and fibroblasts modeled by human mesenchymal stem cells (MSCs). The concentration ranges selected for each drug and investigational agent were based upon clinically achievable concentrations if the clinical Cmax of the agent was known.\nCompounds. The drugs and investigational agents: abemaciclib (NSC768073), cobimetinib (NSC768068), divarasib (GDC6063, NSC841802), docetaxel (NSC628503), GDC-1971 (RLY-1971, NSC841576), gemcitabine (NSC613327), inavolisib (NSC800729), ipatasertib (NSC767898), KB-0742 (NSC834161), MRTX-1133 (NSC836407), osimertinib (NSC779217), RMC-4630 (NSC839698), RMC-6236 (NSC851965), RMC-6291 (NSC852671), Ro-3306 (NSC812927), sapanisertib (NSC764658), SN-38 (NSC673596), staurosporine (NSC755774), SY5609 (NSC837396), and tovorafenib (DAY101, NSC766906), were obtained from the National Cancer Institute (NCI) Developmental Therapeutics Program Chemical Repository. The FDA-approved anticancer drug set is available from the NCI Developmental Therapeutics Program. […] The stock solutions were prepared in dimethyl sulfoxide (DMSO, Sigma-Aldrich, St. Louis, MO, cat. D2650) at 800-fold the tested concentration and stored at -70 degrees C prior to their use. All drugs and investigational agents were tested over a range starting from a high concentration at or near the clinical Cmax and decreasing in half-log increments. If the clinical Cmax for an agent had not been determined, the highest concentration tested was 10 microM.\nCell Culture. All cells were maintained in an incubator at 37 degrees C and 5% CO2 with 95% humidity. The PDC lines were cultured according to standard operating procedures established by the NCI PDMR. All PDCs were thawed and cultured in Matrigel-coated flasks prepared with a working solution of 1X Ham's F-12 nutrient mix, without supplementation (Invitrogen, Waltham, MA, cat. 11765054), 100 U/mL penicillin-streptomycin (Invitrogen, cat. 15140122), and 2.5% Matrigel (Corning Inc., Corning, NY, cat. 354248) for the first three passages. The 362531-283-R-J2-PDC and 782815-120-R-J1-PDC lines were cultured in 6C/Colon 1B media, which includes advanced DMEM/F-12 (Thermo Fisher Scientific, cat. 12634028), 10 mM HEPES (Thermo Fisher Scientific, cat. 15630080), 1X GlutaMAX supplement (Thermo Fisher Scientific, cat. 35050061), 0.1 mg/mL primocin (InvivoGen, San Diego, CA, cat. ant-pm-2), 10% defined fetal bovine serum, heat inactivated (HyClone Laboratories Inc., Logan, UT, cat. SH30070.03HI), 50% L-WRN conditioned media (ATCC, cat. CRL-3276), 1.25 mM N-Acetyl-L-cysteine (Sigma-Aldrich, cat. A9165), 10 mM nicotinamide (Sigma-Aldrich, cat. N0636), 1X B-27 supplement (Thermo Fisher Scientific, cat. 17504044), 1X N-2 supplement (Thermo Fisher Scientific, cat. 17502048), 50 ng/mL human EGF (Thermo Fisher Scientific, cat. PHG0311), and 10 microM Y-27632 dihydrochloride (Tocris Bioscience, cat. 1254). The K12877-001-R-J1-PDC line was cultured in 6I media, which includes all 6C/Colon 1B media plus 10 ng/mL human FGF-10 (PeproTech, cat. 100-26), 1 ng/mL human FGF-2 (PeproTech, cat. 100-18B), 1 µM prostaglandin E2 (Tocris Bioscience, cat. 2296), […] hydrocortisone (Sigma-Aldrich, cat. H4001), and […] bovine insulin (Sigma-Aldrich, cat. I6634). The K86415-001-R-J1-PDC line was cultured in 6D media, which includes all 6C/Colon 1B media components minus the L-WRN conditioned media. The 485176-168-R4-J1-PDC was cultured in PANC media, which includes all 6C/Colon 1B media plus 100 ng/mL human FGF-10 (PeproTech, cat. 100-26), 500 nM SB-431542 (Selleckchem, cat. S1067), and 10 nM gastrin (Tocris Bioscience, cat. 3006). […]"}
{"smiles": "C=CC(=O)N1CCN(c2nc(OCC3CCCN3C)nc3c(F)c(-c4nc(N)cc(C)c4C(F)(F)F)c(Cl)cc23)C(C)C1", "note": "(configuration not stated) + C#Cc1c(F)ccc2cc(O)cc(-c3ncc4c(N5CC6CCC(C5)N6)nc(OCC56CCCN5CC(F)C6)nc4c3F)c12", "values": [{"measurement": "IC50", "setting": "second compound 0.0316 µM", "value": "> 1", "unit": "µM"}, {"measurement": "IC50", "setting": "second compound 0.1 µM", "value": "> 1", "unit": "µM"}, {"measurement": "IC50", "setting": "second compound 0.316 µM", "value": "> 1", "unit": "µM"}, {"measurement": "IC50", "setting": "second compound 1 µM", "value": "> 1", "unit": "µM"}, {"measurement": "IC50", "setting": "second compound 3.16 µM", "value": "> 1", "unit": "µM"}, {"measurement": "IC50", "setting": "second compound 10 µM", "value": "> 1", "unit": "µM"}, {"measurement": "viability, T/C", "setting": "second compound 0.0316 µM, first compound 0.00316 µM", "value": 97.7, "unit": "%"}, {"measurement": "viability, T/C", "setting": "second compound 0.0316 µM, first compound 0.01 µM", "value": 87.3, "unit": "%"}, {"measurement": "viability, T/C", "setting": "second compound 0.0316 µM, first compound 0.0316 µM", "value": 90.9, "unit": "%"}, {"measurement": "viability, T/C", "setting": "second compound 0.0316 µM, first compound 0.1 µM", "value": 79.4, "unit": "%"}, {"measurement": "viability, T/C", "setting": "second compound 0.0316 µM, first compound 0.316 µM", "value": 85.3, "unit": "%"}, {"measurement": "viability, T/C", "setting": "second compound 0.0316 µM, first compound 1 µM", "value": 72.8, "unit": "%"}, {"measurement": "viability, T/C", "setting": "second compound 0.1 µM, first compound 0.00316 µM", "value": 99.2, "unit": "%"}, {"measurement": "viability, T/C", "setting": "second compound 0.1 µM, first compound 0.01 µM", "value": 84.5, "unit": "%"}, {"measurement": "viability, T/C", "setting": "second compound 0.1 µM, first compound 0.0316 µM", "value": 83.7, "unit": "%"}, {"measurement": "viability, T/C", "setting": "second compound 0.1 µM, first compound 0.1 µM", "value": 78.3, "unit": "%"}, {"measurement": "viability, T/C", "setting": "second compound 0.1 µM, first compound 0.316 µM", "value": 83.8, "unit": "%"}, {"measurement": "viability, T/C", "setting": "second compound 0.1 µM, first compound 1 µM", "value": 75.5, "unit": "%"}, {"measurement": "viability, T/C", "setting": "second compound 0.316 µM, first compound 0.00316 µM", "value": 95.8, "unit": "%"}, {"measurement": "viability, T/C", "setting": "second compound 0.316 µM, first compound 0.01 µM", "value": 86.2, "unit": "%"}, {"measurement": "viability, T/C", "setting": "second compound 0.316 µM, first compound 0.0316 µM", "value": 83.4, "unit": "%"}, {"measurement": "viability, T/C", "setting": "second compound 0.316 µM, first compound 0.1 µM", "value": 89.7, "unit": "%"}, {"measurement": "viability, T/C", "setting": "second compound 0.316 µM, first compound 0.316 µM", "value": 75, "unit": "%"}, {"measurement": "viability, T/C", "setting": "second compound 0.316 µM, first compound 1 µM", "value": 81.9, "unit": "%"}, {"measurement": "viability, T/C", "setting": "second compound 1 µM, first compound 0.00316 µM", "value": 101, "unit": "%"}, {"measurement": "viability, T/C", "setting": "second compound 1 µM, first compound 0.01 µM", "value": 85.3, "unit": "%"}, {"measurement": "viability, T/C", "setting": "second compound 1 µM, first compound 0.0316 µM", "value": 77.5, "unit": "%"}, {"measurement": "viability, T/C", "setting": "second compound 1 µM, first compound 0.1 µM", "value": 89.8, "unit": "%"}, {"measurement": "viability, T/C", "setting": "second compound 1 µM, first compound 0.316 µM", "value": 78.2, "unit": "%"}, {"measurement": "viability, T/C", "setting": "second compound 1 µM, first compound 1 µM", "value": 77.8, "unit": "%"}, {"measurement": "viability, T/C", "setting": "second compound 3.16 µM, first compound 0.00316 µM", "value": 106, "unit": "%"}, {"measurement": "viability, T/C", "setting": "second compound 3.16 µM, first compound 0.01 µM", "value": 92.2, "unit": "%"}, {"measurement": "viability, T/C", "setting": "second compound 3.16 µM, first compound 0.0316 µM", "value": 80.7, "unit": "%"}, {"measurement": "viability, T/C", "setting": "second compound 3.16 µM, first compound 0.1 µM", "value": 83.1, "unit": "%"}, {"measurement": "viability, T/C", "setting": "second compound 3.16 µM, first compound 0.316 µM", "value": 85, "unit": "%"}, {"measurement": "viability, T/C", "setting": "second compound 3.16 µM, first compound 1 µM", "value": 73.9, "unit": "%"}, {"measurement": "viability, T/C", "setting": "second compound 10 µM, first compound 0.00316 µM", "value": 94.4, "unit": "%"}, {"measurement": "viability, T/C", "setting": "second compound 10 µM, first compound 0.01 µM", "value": 87.3, "unit": "%"}, {"measurement": "viability, T/C", "setting": "second compound 10 µM, first compound 0.0316 µM", "value": 79.1, "unit": "%"}, {"measurement": "viability, T/C", "setting": "second compound 10 µM, first compound 0.1 µM", "value": 79.8, "unit": "%"}, {"measurement": "viability, T/C", "setting": "second compound 10 µM, first compound 0.316 µM", "value": 78.2, "unit": "%"}, {"measurement": "viability, T/C", "setting": "second compound 10 µM, first compound 1 µM", "value": 83.2, "unit": "%"}]}
